Source: patent US10973228B2, “Eco-friendly non-aqueous antimicrobial composition comprising hinokitiol with 1,3-propanediol and/or sorbitan caprylate” (ISP INVESTMENTS INC., priority 2012, dated 2021)
In brackets after ≈: the same amount, converted by molar mass.

Columns and labels:
Assay type in all cases: cell-based
[1] = tested on: Pseudomonas aeruginosa (DSM 1128); test: MIC study on agar, bacterial strain; conditions: DSM1128, ppm of antimicrobial active (Hinokitiol), Caso-Agar pH 7.3, 2 to 3 weeks at 20 to 25° C.
Experimental: (§1) The individual concentrations of the test-product were weighed into sterile Erlenmeyer flasks and mixed with 100 ml of an appropriate growth media at a maximum temperature of about 40 to 50° C. Equal amounts of mixtures were poured into four Petri dishes. After cooling, the Petri dishes were inoculated with the respective standard strains. During the experiment, the Petri dishes were kept for 2 to 3 weeks at room temperature of about 20 to 25° C. in the dark. The following two different types of culture media were employed for the present studies: • i. Bacteria-Agar: merchantable Caso—Agar pH-Value: 7.3±0.2 • ii. Fungi/Yeast-Agar:merchantable Malt extract—Agar (3%) pH-Value: 5.6±0.2
(§2) After 2nd and 3rd weeks macroscopic evaluations were performed, the ratings are as follows:
(§3) The formulation under examination is considered to be efficient if the following conditions are duly fulfilled i.e. (i) after 2-3 weeks no growth of the tested culture is visible; (ii) with rising concentration of the tested formulation, the germ growth should macroscopically be reduced until it is not visible any more.

[2] = tested on: Burkholderia cepacia (DSM 7288); test: MIC study on agar, bacterial strain; conditions: DSM7288, ppm of antimicrobial active (Hinokitiol), Caso-Agar pH 7.3, 2 to 3 weeks at 20 to 25° C.
Experimental: as §1, §2, §3

[3] = tested on: Escherichia coli (DSM 1576); test: MIC study on agar, bacterial strain; conditions: for reduction of MIC level of hinokitiol: against Escherichia coli
Experimental: as §1, §2, §3

[4] = tested on: Staphylococcus aureus (DSM 799); test: MIC study on agar, bacterial strain
Experimental: as §1, §2, §3

[5] = tested on: Trichoderma viride (DSM 63064); test: MIC study on agar, fungal strain; conditions: DSM63064, ppm of antimicrobial active (Hinokitiol), Malt extract-Agar (3%) pH 5.6, 2 to 3 weeks at 20 to 25° C.
Experimental: as §1, §2, §3

[6] = tested on: Aspergillus brasiliensis (DSM 1988); test: MIC study on agar, fungal strain; conditions: DSM1988, ppm of antimicrobial active (Hinokitiol), Malt extract-Agar (3%) pH 5.6, 2 to 3 weeks at 20 to 25° C.
Experimental: as §1, §2, §3

Question: For `CC(C)c1cccc(O)c(=O)c1` [Hinokitiol, 2-Hydroxy-6-propan-2-ylcyclohepta-2,4,6-trien-1-one], which MIC [1] is on record?
Answer: 500 µg/mL (≈ 3040 µM)

Question: What about the MIC [2] of the same molecule?
Answer: 500 µg/mL (≈ 3040 µM)

Question: What about the MIC ([3]; DSM1576, Escherichia coli, ppm of antimicrobial active (Hinokitiol), Caso-Agar pH 7.3, 2 to 3 weeks at 20 to 25° C.) of the same molecule?
Answer: 100 µg/mL (≈ 609 µM)

Question: What about the “reduction of MIC level of hinokitiol” value ([3]; in presence of 1,3-propanediol (Zemea)) of the same molecule?
Answer: 50%

Question: And the “reduction of MIC level of hinokitiol” value ([3]; in presence of sorbitan caprylate (Velsan SC))?
Answer: 50%

Question: And the MIC ([4]; DSM799, Staphylococcus aureus, ppm of antimicrobial active (Hinokitiol), Caso-Agar pH 7.3, 2 to 3 weeks at 20 to 25° C.)?
Answer: 100 µg/mL (≈ 609 µM)

Question: And the “reduction of MIC level of hinokitiol” value ([4]; in presence of 1,3-propanediol (Zemea), against Staphylococcus aureus)?
Answer: 50%

Question: And the MIC [5]?
Answer: 100 µg/mL (≈ 609 µM)

Question: And the MIC [6]?
Answer: 100 µg/mL (≈ 609 µM)
